The values below are quoted from earlier work in patent US20140271890A1, “CONTROLLED-RELEASE PHARMACEUTICAL COMPOSITION” (priority 2013, published 2014).

For this data set the following is noted: mean dose between 5 and 10 mg in a conventional formulation.

For `Cc1ccc(-c2nc3ccc(C)cn3c2CC(=O)N(C)C)cc1` [Zolpidem], the duration of action result is “up to 6 hours”.
